In test [1] the target is T1, Platelet-derived growth factor receptor alpha (Homo sapiens, UniProt P16234). Briefly: Inhibition of PDGFRalpha (unknown origin) using FAM-labeled peptide as substrate preincubated for 10 mins followed by substrate addition in presence of ATP by mobility shift assay.
Test [2] concerns the target Vascular endothelial growth factor receptor 2 (Homo sapiens, UniProt P35968).
Description: Inhibition of VEGFR2 (unknown origin) using FAM-labeled peptide as substrate preincubated for 10 mins followed by substrate addition in presence of ATP by mobility shift assay
Test [3] concerns the target T2, Mast/stem cell growth factor receptor Kit (Homo sapiens, UniProt P10721).
Description: Inhibition of cKIT (unknown origin) using FAM-labeled peptide as substrate preincubated for 10 mins followed by substrate addition in presence of ATP by mobility shift assay
Test [4] addresses T2, Mast/stem cell growth factor receptor Kit. This is another data set of the same source.
Description: Inhibition of TEL-fused cKIT (unknown origin) expressed in mouse BAF3 cells assessed as cell growth inhibition after 72 hrs by cell titer-glo assay
The subject of test [5] is Mast/stem cell growth factor receptor Kit (Homo sapiens), P10721 [T670I].
Description: Inhibition of TEL-fused cKIT T670I mutant (unknown origin) expressed in mouse BAF3 cells assessed as cell growth inhibition after 72 hrs by cell titer-glo assay
In test [6] the target is T1, Platelet-derived growth factor receptor alpha.
Description: Inhibition of TEL-fused PDGFRalpha (unknown origin) expressed in mouse BAF3 cells assessed as cell growth inhibition after 72 hrs by cell titer-glo assay
Test [7] relates to Platelet-derived growth factor receptor alpha (Homo sapiens), P16234 [T674I].
Chain of Platelet-derived growth factor receptor alpha (Homo sapiens), P16234 [T674I] (P16234 whole entry T674I): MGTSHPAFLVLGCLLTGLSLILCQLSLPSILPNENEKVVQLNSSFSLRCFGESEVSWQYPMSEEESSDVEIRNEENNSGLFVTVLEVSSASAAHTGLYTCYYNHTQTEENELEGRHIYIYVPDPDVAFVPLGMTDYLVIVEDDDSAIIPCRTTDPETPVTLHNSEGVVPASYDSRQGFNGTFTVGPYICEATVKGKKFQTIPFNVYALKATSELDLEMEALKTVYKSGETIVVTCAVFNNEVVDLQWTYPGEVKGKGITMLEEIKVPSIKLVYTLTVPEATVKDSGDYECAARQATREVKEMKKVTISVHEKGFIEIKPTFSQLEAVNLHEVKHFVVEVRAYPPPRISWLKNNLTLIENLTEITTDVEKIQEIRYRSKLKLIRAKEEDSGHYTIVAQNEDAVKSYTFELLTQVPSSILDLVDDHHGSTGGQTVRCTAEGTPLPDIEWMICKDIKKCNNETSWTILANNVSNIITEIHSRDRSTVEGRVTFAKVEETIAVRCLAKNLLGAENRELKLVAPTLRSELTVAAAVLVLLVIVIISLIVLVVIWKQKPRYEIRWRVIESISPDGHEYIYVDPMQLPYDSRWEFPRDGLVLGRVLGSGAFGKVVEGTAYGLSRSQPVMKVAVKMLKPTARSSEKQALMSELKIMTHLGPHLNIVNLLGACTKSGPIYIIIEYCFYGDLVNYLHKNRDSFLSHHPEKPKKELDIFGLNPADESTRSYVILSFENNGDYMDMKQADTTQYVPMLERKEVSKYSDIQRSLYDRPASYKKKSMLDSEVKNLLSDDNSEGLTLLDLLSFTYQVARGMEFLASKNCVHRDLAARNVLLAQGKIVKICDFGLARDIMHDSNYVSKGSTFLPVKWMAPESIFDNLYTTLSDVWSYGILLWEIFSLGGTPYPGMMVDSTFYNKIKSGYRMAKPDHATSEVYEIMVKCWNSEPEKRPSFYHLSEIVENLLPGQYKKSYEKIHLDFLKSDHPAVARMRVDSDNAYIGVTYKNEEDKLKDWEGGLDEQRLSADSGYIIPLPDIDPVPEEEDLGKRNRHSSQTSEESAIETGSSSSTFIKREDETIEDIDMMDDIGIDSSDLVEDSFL
Description: Inhibition of TEL-fused PDGFRalpha T674I mutant (unknown origin) expressed in mouse BAF3 cells assessed as cell growth inhibition after 72 hrs by cell titer-glo assay

For orientation: IC50 means the concentration that inhibits the measured activity by half. By GI50 is commonly meant the concentration at which growth is held to half of that of the control. A lower GI50 goes with greater sensitivity of the cells.

Some results are limits rather than exact numbers.

T2 sequence (P10721 whole entry): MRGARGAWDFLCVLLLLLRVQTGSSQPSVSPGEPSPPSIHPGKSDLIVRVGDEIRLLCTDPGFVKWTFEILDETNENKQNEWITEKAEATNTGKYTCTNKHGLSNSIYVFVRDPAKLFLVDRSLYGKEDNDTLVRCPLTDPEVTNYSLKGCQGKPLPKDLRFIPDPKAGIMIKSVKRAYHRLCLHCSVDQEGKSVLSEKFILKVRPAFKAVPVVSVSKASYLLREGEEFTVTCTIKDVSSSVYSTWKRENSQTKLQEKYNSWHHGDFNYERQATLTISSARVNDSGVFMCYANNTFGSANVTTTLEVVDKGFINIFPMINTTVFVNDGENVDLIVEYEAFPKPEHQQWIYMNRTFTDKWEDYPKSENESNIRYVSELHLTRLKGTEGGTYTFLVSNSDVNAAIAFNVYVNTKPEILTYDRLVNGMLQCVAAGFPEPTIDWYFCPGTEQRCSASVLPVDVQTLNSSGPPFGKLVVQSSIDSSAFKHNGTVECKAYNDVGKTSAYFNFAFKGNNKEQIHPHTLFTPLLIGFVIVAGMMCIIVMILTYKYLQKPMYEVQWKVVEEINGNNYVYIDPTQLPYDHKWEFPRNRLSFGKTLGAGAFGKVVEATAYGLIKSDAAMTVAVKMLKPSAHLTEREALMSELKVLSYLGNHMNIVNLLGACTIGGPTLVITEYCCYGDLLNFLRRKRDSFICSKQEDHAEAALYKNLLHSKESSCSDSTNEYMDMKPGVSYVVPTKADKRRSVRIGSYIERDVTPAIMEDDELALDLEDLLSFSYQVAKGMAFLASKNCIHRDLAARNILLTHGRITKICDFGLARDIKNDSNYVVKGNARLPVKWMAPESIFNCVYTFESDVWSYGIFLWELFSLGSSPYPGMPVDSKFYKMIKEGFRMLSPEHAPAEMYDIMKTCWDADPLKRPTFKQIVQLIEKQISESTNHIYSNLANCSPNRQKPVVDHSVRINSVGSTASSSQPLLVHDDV
Chain of Vascular endothelial growth factor receptor 2 (P35968 whole entry): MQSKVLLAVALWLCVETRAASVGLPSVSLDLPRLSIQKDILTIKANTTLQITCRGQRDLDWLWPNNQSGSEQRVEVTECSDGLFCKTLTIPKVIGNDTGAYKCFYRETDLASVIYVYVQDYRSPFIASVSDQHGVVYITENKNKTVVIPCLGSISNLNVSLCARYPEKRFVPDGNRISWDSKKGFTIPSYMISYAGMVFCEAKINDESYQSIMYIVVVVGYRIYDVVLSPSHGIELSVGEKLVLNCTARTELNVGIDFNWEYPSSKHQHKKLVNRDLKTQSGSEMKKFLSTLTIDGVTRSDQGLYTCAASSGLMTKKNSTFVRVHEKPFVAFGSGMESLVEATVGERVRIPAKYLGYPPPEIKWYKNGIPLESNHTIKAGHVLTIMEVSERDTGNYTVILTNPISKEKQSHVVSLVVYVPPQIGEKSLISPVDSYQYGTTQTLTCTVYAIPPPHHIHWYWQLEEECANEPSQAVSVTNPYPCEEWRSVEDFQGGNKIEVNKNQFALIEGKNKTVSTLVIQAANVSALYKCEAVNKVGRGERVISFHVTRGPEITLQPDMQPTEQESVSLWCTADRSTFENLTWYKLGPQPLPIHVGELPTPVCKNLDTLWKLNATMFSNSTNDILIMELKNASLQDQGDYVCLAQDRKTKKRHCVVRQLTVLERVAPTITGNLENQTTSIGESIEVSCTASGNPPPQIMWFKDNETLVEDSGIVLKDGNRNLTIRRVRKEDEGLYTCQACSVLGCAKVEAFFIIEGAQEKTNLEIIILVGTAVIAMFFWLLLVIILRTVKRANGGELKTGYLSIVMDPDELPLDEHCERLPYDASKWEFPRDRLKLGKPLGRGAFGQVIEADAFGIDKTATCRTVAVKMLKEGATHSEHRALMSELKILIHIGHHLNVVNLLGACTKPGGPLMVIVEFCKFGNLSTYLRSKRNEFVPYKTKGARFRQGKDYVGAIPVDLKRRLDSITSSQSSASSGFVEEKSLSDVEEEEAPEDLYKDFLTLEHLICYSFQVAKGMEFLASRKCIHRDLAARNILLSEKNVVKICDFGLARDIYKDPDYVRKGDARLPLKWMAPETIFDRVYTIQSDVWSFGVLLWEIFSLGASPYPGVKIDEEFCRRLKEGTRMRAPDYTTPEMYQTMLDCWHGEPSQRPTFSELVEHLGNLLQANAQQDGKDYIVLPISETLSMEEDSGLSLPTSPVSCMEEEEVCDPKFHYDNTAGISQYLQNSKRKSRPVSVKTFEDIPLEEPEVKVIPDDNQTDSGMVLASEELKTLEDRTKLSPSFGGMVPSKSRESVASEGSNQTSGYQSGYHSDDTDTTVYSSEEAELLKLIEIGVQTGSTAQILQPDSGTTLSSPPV
Chain of Mast/stem cell growth factor receptor Kit (Homo sapiens), P10721 [T670I] (P10721 whole entry T670I): as the sequence (P10721 whole entry) above, with T670I counted along it
T1 sequence (P16234 whole entry): as the sequence (P16234 whole entry T674I) above, with I674T counted along it

Take `Cc1n[nH]c2nccc(-c3ccc(NC(=O)Nc4ccccn4)cc3)c12`: the half-maximal inhibitory concentration (IC50) in test [1] was 0.401 µM; in test [2] it was above 50 µM; in test [3] it was 0.02 µM.

As to `Cc1n[nH]c2nccc(-c3ccc(NC(=O)Nc4cccc(N5CCN(C)CC5)c4)cc3)c12`, the IC50 stood at 0.215 µM in test [1], 6.24 µM in test [2] and 0.019 µM in test [3].

Consider `Cc1n[nH]c2nccc(-c3ccc(NC(=O)Nc4ccn[nH]4)cc3)c12`, for which the IC50 in test [1] worked out at 0.411 µM; in test [2], 2.39 µM; in test [3], 0.12 µM.

In the case of `Cc1n[nH]c2nccc(-c3ccc(NC(=O)Nc4cccc(C#N)c4)cc3)c12`, the IC50 is 21.4 µM in test [1], above 50 µM in test [2] and 0.201 µM in test [3].

Consider `Cc1n[nH]c2nccc(-c3ccc(NC(=O)NCCCc4ccccc4)cc3)c12`, for which the IC50 in test [1] was 0.024 µM; in test [2], 3.86 µM; in test [3], 0.0017 µM. Besides, the GI50 in test [4] stood at 3.02 µM; in test [5], 1.67 µM; in test [6], 0.0104 µM; in test [7] it was 2.05 µM.

Consider `CCN(CC)c1cccc(NC(=O)Nc2ccc(-c3ccnc4[nH]nc(C)c34)cc2)c1`, for which the IC50 in test [1] worked out at 0.136 µM; in test [2], 42 µM; in test [3] it was 0.012 µM.

Consider `Cc1n[nH]c2nccc(-c3ccc(NC(=O)Nc4ccc(N(C)C)cc4)cc3)c12`, for which the IC50 in test [1] was 0.309 µM; in test [2] it was 9.05 µM; in test [3], 0.0093 µM.

Take `Cc1ccc(F)c(NC(=O)Nc2ccc(-c3cccc4[nH]nc(N)c34)cc2)c1` [LINIFANIB]: the IC50 in test [1] was 0.015 µM. For the same compound, the concentration for 50% growth inhibition (GI50) amounted to 0.0887 µM in test [4], 0.0371 µM in test [5], 0.0104 µM in test [6] and 0.104 µM in test [7].

Turning to `Cc1n[nH]c2nccc(-c3ccc(NC(=O)Nc4ccc5ccccc5c4)cc3)c12`, the IC50 was 0.124 µM in test [1], above 50 µM in test [2] and 0.02 µM in test [3].

With `Cc1cccc(NC(=O)Nc2ccc(-c3ccnc4[nH]nc(CO)c34)cc2)c1`, the IC50 is 0.087 µM in test [1], 4.92 µM in test [2] and 0.0024 µM in test [3]. Also, the GI50 in test [4] came out at 1.07 µM; in test [5], 1.84 µM; in test [6] it was 0.0104 µM; in test [7], 5 µM.

Consider `CCCCCNC(=O)Nc1ccc(-c2ccnc3[nH]nc(C)c23)cc1`, for which the values for the IC50 in test [1], in test [2] and in test [3] were 0.164 µM, above 50 µM and 0.0035 µM, respectively.

`Cc1ccccc1NC(=O)Nc1ccc(-c2ccnc3[nH]nc(C)c23)cc1`: the figures for the IC50 in test [1], in test [2] and in test [3] were 0.305 µM, 4.32 µM and 10.9 µM, respectively.

As to `Cc1n[nH]c2nccc(-c3ccc(NC(=O)NCCCCc4ccccc4)cc3)c12`, the IC50 in test [1] was 0.135 µM; in test [2], 10.9 µM; in test [3], 0.0062 µM.

`CCCCNC(=O)Nc1ccc(-c2ccnc3[nH]nc(C)c23)cc1`: the IC50 in test [1] was 43.9 µM; in test [2], above 50 µM; in test [3] it was 20.6 µM.

For `Cc1n[nH]c2nccc(-c3ccc(NC(=O)NC4CCCC4)cc3)c12`, the IC50 in test [1] stood at 0.576 µM; in test [2] it was 6.23 µM; in test [3], 0.144 µM. Further, the 50% growth inhibitory concentration (GI50) is above 10 µM in test [4], above 10 µM in test [5], 0.0133 µM in test [6] and above 10 µM in test [7].

Turning to `Cc1n[nH]c2nccc(-c3ccc(NC(=O)Nc4cccc(N(C)C)c4)cc3)c12`, the IC50 in test [1] worked out at 0.083 µM; in test [2], 6.92 µM; in test [3], 0.0026 µM.

Regarding `CCCCCCNC(=O)Nc1ccc(-c2ccnc3[nH]nc(C)c23)cc1`, the IC50 came out at 0.027 µM in test [1], 10.5 µM in test [2] and 0.0014 µM in test [3]. Also, the GI50 in test [4] is 3.03 µM; in test [5] it was 1.78 µM; in test [6], 0.0104 µM; in test [7] it was 3.18 µM.

For the compound `Cc1n[nH]c2nccc(-c3ccc(NC(=O)Nc4cccc5ccccc45)cc3)c12`, the results for the IC50 in test [1], in test [2] and in test [3] were 0.097 µM, above 50 µM and 0.0036 µM, respectively.

Turning to `CCc1cccc(NC(=O)Nc2ccc(-c3ccnc4[nH]nc(CO)c34)cc2)c1`, the results for the IC50 in test [1], in test [2] and in test [3] were 0.032 µM, 3.36 µM and 0.0037 µM, respectively.

For `CCNC(=O)Nc1ccc(-c2ccnc3[nH]nc(C)c23)cc1`, the IC50 was above 50 µM in test [1], above 50 µM in test [2] and 38.7 µM in test [3].

For `Cc1n[nH]c2nccc(-c3ccc(NC(=O)Nc4cccc(CN(C)C)c4)cc3)c12`, the IC50 in test [1] amounted to 4.61 µM; in test [2], 15.9 µM; in test [3] it was 22.1 µM.

In the case of `Cc1n[nH]c2nccc(-c3ccc(NC(=O)NCCc4ccccc4)cc3)c12`, the IC50 is 0.082 µM in test [1] and 0.0037 µM in test [3].

For `Cc1n[nH]c2nccc(-c3ccc(NC(=O)NCC(C)C)cc3)c12`, the half-maximal inhibitory concentration (IC50) in test [1] was found to be 1.12 µM; in test [2], 8.63 µM; in test [3], 0.32 µM.

Regarding `Cc1n[nH]c2nccc(-c3ccc(NC(=O)NCc4ccccn4)cc3)c12`, the IC50 in test [1] was 0.472 µM; in test [2], 4.08 µM; in test [3], 0.078 µM.

`Cc1n[nH]c2nccc(-c3ccc(NC(=O)Nc4ccccc4N4CCOCC4)cc3)c12`: the IC50 in test [1] was found to be 4.08 µM; in test [2], 36.9 µM; in test [3] it was 6.44 µM.

As to `Cc1n[nH]c2nccc(-c3ccc(NC(=O)NCc4ccco4)cc3)c12`, the IC50 in test [1] came to 0.387 µM; in test [2], 3.5 µM; in test [3] it was 0.051 µM.

Turning to `Cc1cc(N2CCN(C)CC2)ccc1NC(=O)Nc1ccc(-c2ccnc3[nH]nc(C)c23)cc1`, the IC50 amounted to 1.1 µM in test [1], 6.82 µM in test [2] and 2.22 µM in test [3].

Consider `CCCNC(=O)Nc1ccc(-c2ccnc3[nH]nc(C)c23)cc1`, for which the IC50 in test [1] is above 50 µM; in test [2], above 50 µM; in test [3], 21.4 µM.

As for `Cc1n[nH]c2nccc(-c3ccc(NC(=O)Nc4ccccc4N4CCN(C)CC4)cc3)c12`, the half-inhibitory concentration (IC50) in test [1] amounted to 0.928 µM; in test [2], 4.16 µM; in test [3] it was 4.58 µM.

In the case of `Cc1n[nH]c2nccc(-c3ccc(NC(=O)NC4CCC4)cc3)c12`, the results for the IC50 in test [1], in test [2] and in test [3] were 0.732 µM, 5 µM and 0.318 µM, respectively.

Turning to `CCc1cccc(NC(=O)Nc2ccc(-c3ccnc4[nH]nc(C)c34)cc2)c1`, the IC50 was determined as 0.022 µM in test [1], 1.21 µM in test [2] and 0.0039 µM in test [3].

Consider `Cc1n[nH]c2nccc(-c3ccc(NC(=O)NC(C)(C)C)cc3)c12`, for which the IC50 in test [1] is 1.47 µM; in test [2], 11.4 µM; in test [3], 1.42 µM.

Consider `CCN(CC)c1ccc(NC(=O)Nc2ccc(-c3ccnc4[nH]nc(C)c34)cc2)cc1`, for which the results for the IC50 in test [1], in test [2] and in test [3] were 0.176 µM, 5.35 µM and 0.012 µM, respectively.

In the case of `Cc1n[nH]c2nccc(-c3ccc(NC(=O)NCc4ccccc4)cc3)c12`, the IC50 in test [1] is above 50 µM; in test [2] it was above 50 µM; in test [3] it was 46.1 µM.

Turning to `Cc1ccc(NC(=O)Nc2ccc(-c3ccnc4[nH]nc(C)c34)cc2)cc1`, the IC50 was found to be 0.065 µM in test [1], 5.61 µM in test [2] and 1.83 µM in test [3].

For the compound `CCc1cccc(NC(=O)Nc2ccc(-c3ccnc4[nH]nc(C(F)(F)F)c34)cc2)c1`, the IC50 in test [1] is above 5 µM; in test [2], above 50 µM; in test [3], 6.77 µM.

With `Cc1n[nH]c2nccc(-c3ccc(NC(=O)Nc4cccc(F)c4)cc3)c12`, the IC50 in test [1] turned out to be 0.262 µM; in test [2], 6.23 µM; in test [3] it was 4.79 µM.

On to `Cc1n[nH]c2nccc(-c3ccc(NC(=O)Nc4cnc5ccccc5c4)cc3)c12`, for which the IC50 came to 0.022 µM in test [1], 1.84 µM in test [2] and 0.0019 µM in test [3]. Also, the GI50 is 0.0833 µM in test [4], 0.217 µM in test [5], 0.0104 µM in test [6] and 1.51 µM in test [7].

For the compound `Cc1n[nH]c2nccc(-c3ccc(NC(=O)NC4CCCCC4)cc3)c12`, the IC50 in test [1], in test [2] and in test [3] was above 50 µM in each case.

Take `Cc1n[nH]c2nccc(-c3ccc(NC(=O)NCc4cccs4)cc3)c12`: the figures for the IC50 in test [1], in test [2] and in test [3] were 0.157 µM, 1.79 µM and 0.026 µM, respectively.

Turning to `Cc1n[nH]c2nccc(-c3ccc(NC(=O)NC4CC4)cc3)c12`, the IC50 was determined as 1.13 µM in test [1], 4.52 µM in test [2] and 0.553 µM in test [3].

`Cc1n[nH]c2nccc(-c3ccc(NC(=O)Nc4cccnc4)cc3)c12`: the values for the IC50 in test [1], in test [2] and in test [3] were 0.313 µM, 3.11 µM and 0.014 µM, respectively.

On to `Cc1ccc(N2CCN(C)CC2)c(NC(=O)Nc2ccc(-c3ccnc4[nH]nc(C)c34)cc2)c1`, for which the values for the IC50 in test [1], in test [2] and in test [3] were 1.78 µM, 3.94 µM and 1.95 µM, respectively.

On to `Cc1n[nH]c2nccc(-c3ccc(NC(=O)NC4Cc5ccccc5C4)cc3)c12`, for which the IC50 in test [1] is 0.083 µM; in test [2], above 50 µM; in test [3] it was 0.0087 µM.

For `Cc1cc(NC(=O)Nc2ccc(-c3ccnc4[nH]nc(C)c34)cc2)ccc1N1CCN(C)CC1`, the half-inhibitory concentration (IC50) in test [1] was 0.127 µM; in test [2] it was 3.7 µM; in test [3] it was 0.0072 µM.

With `Cc1ccc(N2CCOCC2)c(NC(=O)Nc2ccc(-c3ccnc4[nH]nc(C)c34)cc2)c1`, the IC50 turned out to be 18.9 µM in test [1], 26.2 µM in test [2] and 0.397 µM in test [3].

As to `Cc1n[nH]c2nccc(-c3ccc(NC(=O)Nc4cccc(Cl)c4)cc3)c12`, the figures for the IC50 in test [1], in test [2] and in test [3] were 0.182 µM, 4.05 µM and 2.4 µM, respectively.
